Read-outs that look alike come from different tables or passages of the source.

Here are results for ten compounds from patent US7091025B2, “Malathion carboxylesterase” (priority 1995, dated 2006).

Data set [1] concerns adult female L. cuprina. Type of data set: in vivo. The conditions noted are these: for RF (Dz/para R): ratio of the LD50 of Llandillo 103 with the LD50 of LS2 / RF (Mal R): ratio of the LD50 of Woodside 5.2 with the LD50 of LS2: L. cuprina, NS = not significantly different from unity; for LD50 LS2 (OP Susceptible), with 95% confidence limits: strain LS2, topical in dioctylphthalate; for LD50 LS2 (OP Susceptible), with 95% confidence limits / LD50 Llandillo 103 (Dz/para Resistant), with 95% confidence limits / LD50 Woodside 5.2 (Mal Resistant), with 95% confidence limits: mortality at 24 hours; for LD50 Llandillo 103 (Dz/para Resistant), with 95% confidence limits: strain Llandillo 103, topical; for LD50 Woodside 5.2 (Mal Resistant), with 95% confidence limits: strain Woodside 5.2, topical. An excerpt:
(§1) The following organophosphorus compounds were used: diazinon (O,O-diethyl O-2-isopropyl-6-methylpyrimidin-4-yl phosphorothioate, 91%, Mallinckrodt), parathion-methyl (O,O-dimethyl O-4-nitrophenyl phosphorothioate, 97.0%, Bayer), parathion (O,O-diethyl O-4-nitrophenyl phosphorothioate, 99%, Pestanal grade, Riedel-de-Haën), fenthion (O,O-dimethyl O-[3-methyl-4-(methylthio)phenyl]phosphorothioate, 98.8%, Bayer), fenthion-ethyl (O,O-diethyl O-[3-methyl-4-(methylthio)phenyl] phosphorothioate, a gift from Dr. G. Levot), dichlorvos (2,2-dichlorovinyl dimethyl phosphate, 99%, Chem Service), diethyl-dichlorvos (2,2-dichlorovinyl diethyl phosphate, a gift from Dr. J. Desmarchelier), di-isopropyl-dichlorvos (2,2-dichlorovinyl di-isopropyl phosphate, a gift from Dr. J. Desmarchelier), malathion (S-1,2-bis(ethoxycarbonyl)ethyl O,O-dimethyl phosphorodithioate, technical grade, Nufarm), isopropyl malathion (S-1,2-bis(ethoxycarbonyl)ethyl O,O-di-isopropyl phosphorodithioate, a gift from Dr. J. Desmarchelier).
(§2) The toxicity of OPs in adult female L. cuprina was determined 3 or 4 days post-eclosion by application of OPs to the scutellum in 0.7 μl dioctylphthalate (Busvine, J. R., Bell, J. D. and Guneidy, A. M., Bulletin of Entomological Research 54: 589, 1963;; Townsend, M. G. and Busvine, J. R., Entomology Experimental and Applied 12: 243, 1969). Each OP was applied to at least 20 flies at each of at least 5 different concentrations, spanning the dose causing 50% mortality (LD50). Control groups were treated with solvent but no OP. Mortality was determined 24 hours later. Data were fitted to the probit curve using the Probit Or LOgit (POLO-PC) computer program (LeOra Software, 1987).

Data set [2] deals with adult L. cuprina, Llandillo 103 strain (Dz/para Resistant). Kind of data set: toxicity of OPs in adult female L. cuprina, Llandillo 103 strain. The data set is classed as in vivo, Lucilia cuprina.
Text: as §1, §2
(§3) LD50s of 10 OPs were determined for the Woodside 5.2 strain (homozygous for a malathion resistance allele of LcαE7) and the Llandillo 103 strain (homozygous for a parathion/diazinon resistance allele of LcαE7). LD50s were also determined for the OP susceptible LS2 strain in order to calculate resistance factors (Table 8).

For data set [3], the system named is malathion carboxylesterase (MCE) purified from malathion resistant strains of L. cuprina. The conditions noted are these: purified MCE (Whyard and Walker 1994); cited from earlier work.
Data set [4] deals with M. domestica. The note with it: Bell and Busvine 1967; Townsend and Busvine 1969; cited from earlier work.
The test system of data set [5] is CCCC(=O)Oc1cccc2ccccc12. Kind of data set: α-naphthyl butyrate hydrolysis, expressed malathion susceptible LcαE7 product. Type of data set: biochemical, Lucilia cuprina. The note with it: other: α-NB 6-200 μM, 25° C., pH 8.0. The protocol: (§4) The in vitro expression of the OP susceptible allele of LcαE7 (clone Lc743) is described in patent application PCT/AU 95/00016 (“Enzyme based bioremediation”).
(§5) The initial rates of reactions between cell extracts containing the expressed products of the malathion resistant and susceptible LcαE7 alleles and α-naphthyl acetate (α-NA) were determined at 25° C. using a recording spectrophotometer and the method of Mastrapaolo and Yourno (Analytical Biochemistry 115: 188, 1981). 6–200 μM α-NA dissolved in 10 μl of 2-methoxyethanol was added to 0.1 M Tris-HCl pH 8.0 (980 μl) in a quartz cuvette. α-Naphthyl acetate is slowly hydrolysed in water so a background rate was recorded before starting the enzymic reaction by the addition of 10 μl of diluted cell extract. Control reactions were performed with extracts of both uninfected cells and Bacpac 6 infected cells.
As described above for α-NA hydrolysis except that 6–200 μM α-naphthyl butyrate (α-NB) was used instead of α-NA.
(§6) Km and Vmax were calculated for both enzymes. Kcat was then calculated from the Vmax and the molarity of the LcαE7 products in their respective cell extracts (determined above).

In data set [6] the test system is CC(=O)Oc1cccc2ccccc12. Briefly: α-naphthyl acetate hydrolysis, expressed malathion susceptible LcαE7 product. Type of data set: biochemical, Lucilia cuprina. The conditions noted are these: other: α-NA 6-200 μM, 25° C., pH 8.0. On the procedure: as §4, §5, §6
Data set [7] relates to malathion carboxylesterase (MCE) purified from malathion resistant strains of L. cuprina. The note with it: cited from earlier work.
Data set [8] has as its target Lucilia cuprina LcαE7 (esterase E3) gene product, malathion resistant allele (strain RM-8), Trp to Leu at position 251 (Lucilia cuprina, UniProt Q25252, W251L). Kind of data set: malathion hydrolysis (MCE activity), expressed malathion resistant LcαE7 product. Type of data set: biochemical. The note with it: malathion 2.5-100 μM, 25° C., pH 7.0.
Data set [9] has as its target Lucilia cuprina LcαE7 (esterase E3) gene product, malathion susceptible allele (strain LS2; clone Lc743), Trp at position 251 (Lucilia cuprina, UniProt Q25252). Kind of data set: malathion hydrolysis (MCE activity), expressed malathion susceptible LcαE7 product. The conditions noted are these: malathion 2.5-100 μM, 25° C., pH 7.0. The data set is classed as biochemical.

Data set [10] relates to malathion carboxylesterase (MCE) purified from malathion resistant strains of L. cuprina. The conditions noted are these: purified MCE (Whyard and Walker 1994); cited from earlier work. This is another data set of the same source.
For data set [11], the system named is CCCC(=O)Oc1cccc2ccccc12. Briefly: α-naphthyl butyrate hydrolysis, expressed malathion resistant LcαE7 product. The data set is classed as biochemical, Lucilia cuprina. The note with it: other: α-NB 6-200 μM, 25° C., pH 8.0. The protocol: (§7) The malathion resistant Lcα7 full-length cDNA was cloned into the baculovirus transfer vector, Bacpac 6 (Clonetech) 3′ of the polyhedrin promoter. Transfections were conducted using a lipofection method with DOTAP (Boehringer Mannheim) as per King and Possee (The Baculovirus Expression System: A Laboratory Guide, Chapman & Hall, London, 1992). One μg of DNA of each of the resulting constructs together with 200 ng of Bacpac 6 baculovirus DNA (Clonetech), linearised by digestion with the restriction enzyme BSU 36I (Promega), was incubated in a solution of HBS (hepes buffered saline) containing 15% DOTAP (Boehringer Mannheim) in a polystyrene container at room temperature for 10 minutes. […]
as §5, with “Control reactions were performed with extracts of both uninfected cells and Bacpac 6 infected cells.” left out
(§8) Km and Vmax were calculated for both enzymes. […]

Data set [12] concerns CC(=O)Oc1cccc2ccccc12. Kind of data set: α-naphthyl acetate hydrolysis, expressed malathion resistant LcαE7 product. The data set is classed as biochemical, Lucilia cuprina. The note with it: other: α-NA 6-200 μM, 25° C., pH 8.0. On the procedure: as §7
as §5, with “Control reactions were performed with extracts of both uninfected cells and Bacpac 6 infected cells.” left out
as §8

The subject of data set [13] is adult L. cuprina, Woodside 5.2 strain (Mal Resistant). The data set is classed as in vivo, Lucilia cuprina.
Text: as §1, §2, §3

The mark [14] stands for this setting: purified MCE (Whyard et al. 1994).

Lucilia cuprina LcαE7 (esterase E3) gene product, malathion susceptible allele (strain LS2; clone Lc743), Trp at position 251, sequence (Q25252 entry or part of it): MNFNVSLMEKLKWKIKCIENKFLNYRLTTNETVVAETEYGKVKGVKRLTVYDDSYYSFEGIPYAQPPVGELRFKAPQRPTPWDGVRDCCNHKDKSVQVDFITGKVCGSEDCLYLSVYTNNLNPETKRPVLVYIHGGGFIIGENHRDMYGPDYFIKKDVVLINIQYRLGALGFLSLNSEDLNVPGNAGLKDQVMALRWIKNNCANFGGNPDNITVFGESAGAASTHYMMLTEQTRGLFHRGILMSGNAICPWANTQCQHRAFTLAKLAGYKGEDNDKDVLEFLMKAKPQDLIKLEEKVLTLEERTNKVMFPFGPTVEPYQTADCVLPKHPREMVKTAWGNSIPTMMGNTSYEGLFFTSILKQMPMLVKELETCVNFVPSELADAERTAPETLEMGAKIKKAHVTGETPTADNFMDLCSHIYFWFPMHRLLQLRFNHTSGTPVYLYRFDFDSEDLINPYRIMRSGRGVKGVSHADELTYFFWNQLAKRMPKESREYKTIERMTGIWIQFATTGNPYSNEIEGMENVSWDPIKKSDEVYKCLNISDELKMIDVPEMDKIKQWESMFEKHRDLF

Turning to `CCOP(=O)(OC=C(Cl)Cl)OCC` [Ethyl Dichlorvos, 2,2-dichlorovinyl diethyl phosphate], in data set [1], the “RF (Dz/para R): ratio of the LD50 of Llandillo 103 with the LD50 of LS2” value (from here on “RF (Dz/para R): ratio”) was found to be 7; the “RF (Mal R): ratio of the LD50 of Woodside 5.2 with the LD50 of LS2” value (“RF (Mal R): ratio” below) amounted to 3; the “LD50 LS2 (OP Susceptible), with 95% confidence limits” value (shortened to “LD50 LS2 … with 95% confidence limits”) is on record as 360 (300–420), ng/fly; the “LD50 Llandillo 103 (Dz/para Resistant), with 95% confidence limits” value is on record as 2370 (2320–2410), ng/fly. In [1], the “LD50 Woodside 5.2 (Mal Resistant), with 95% confidence limits” value is listed as 1100 (700–1500) ng/fly. In addition, the “resistance factor towards diethyl OP vs its dimethyl analogue” value in data set [2] is “about two-fold greater resistance factors”.

Turning to `CC(=O)Oc1cccc2ccccc12` [α-naphthyl acetate], in data set [3], the Kcat is 2063 per min and the Km is 167 ± 14 µM.

Take `CCOP(=S)(OCC)Oc1ccc([N+](=O)[O-])cc1` [Parathion, O,O-diethyl O-4-nitrophenyl phosphorothioate]: in data set [1], the “RF (Dz/para R): ratio” value amounted to 20; the “RF (Mal R): ratio” value stood at 6; the “LD50 LS2 … with 95% confidence limits” value is 52 (48–55), ng/fly; the “LD50 Llandillo 103 (Dz/para Resistant), with 95% confidence limits” value is reported as 1050 (890–1280), ng/fly. The “LD50 Woodside 5.2 (Mal Resistant), with 95% confidence limits” value in [1] was 290 (270–310), ng/fly. For the same compound, in [4], the “Resistance factor of M. domestica (in parentheses), Dz/para resistance type” value (“Resistance factor … Dz/para resistance type” for short) is given as 35 and the “Resistance factor of M. domestica (in parentheses), malathion resistance type” value (“Resistance factor … malathion resistance type” below) was 3. The “resistance factor towards diethyl OP vs its dimethyl analogue” value in [2] is recorded as “about two-fold greater resistance factors”.

For the compound “Lucilia cuprina LcαE7 (esterase E3) gene product, malathion susceptible allele (strain LS2; clone Lc743), Trp at position 251 (Lucilia cuprina)”, in data set [5], the Km worked out at 20 ± 5 µM and the kcat amounted to 300 ± 33.3 s⁻¹. Further, in [6], the Michaelis-Menten constant (Km) amounted to 70 ± 5 µM and the kcat is 183 ± 5 s⁻¹.

With `CCOP(=S)(OCC)Oc1ccc(SC)c(C)c1` [Fenthion-ethyl, O,O-diethyl O-[3-methyl-4-(methylthio)phenyl] phosphorothioate], in [1], the “RF (Dz/para R): ratio” value came out at 2; the “RF (Mal R): ratio” value was determined as 2; the “LD50 LS2 … with 95% confidence limits” value is listed as 330 (290–370) ng/fly; the “LD50 Llandillo 103 (Dz/para Resistant), with 95% confidence limits” value is reported as 690 (570–830) ng/fly. Further, the “LD50 Woodside 5.2 (Mal Resistant), with 95% confidence limits” value in data set [1] is 730 (660–870) ng/fly. The “resistance factor towards diethyl OP vs its dimethyl analogue” value in [2] was “no significant difference”.

Consider `CCOC(=O)CC(SP(=S)(OC)OC)C(=O)OCC` (centres unmarked) [malathion, S-1,2-bis(ethoxycarbonyl)ethyl O,O-dimethyl phosphorodithioate], for which the Kcat in data set [7] (purified MCE (Whyard and Walker 1994)) is 46±2 per min. For the same compound, in data set [7] (setting [14]), the Km is 11 ± 0.4 µM, the Vmax is on record as 775±28 nmol malathion/min/mg and the “kcat (turnover number)” value was 0.767 s⁻¹. Further, in [8], the Kcat turned out to be 0.717 ± 0.017 s⁻¹ and the Km was 21 ± 1 µM. Besides, in data set [9], the Kcat amounted to 1.17 ± 0.183 s⁻¹ and the Km was 200 ± 30 µM.

Turning to `CCCC(=O)Oc1cccc2ccccc12` [α-naphthyl butyrate], in data set [10], the Kcat is reported as 3700 per min and the Km is 39 ± 4 µM.

Take “Lucilia cuprina LcαE7 (esterase E3) gene product, malathion resistant allele (strain RM-8), Trp to Leu at position 251 (Lucilia cuprina; W251L)”: in [11], the Km was found to be 29 ± 4 µM and the kcat was determined as 150 ± 6.67 s⁻¹. Besides, in data set [12], the Km turned out to be 150 ± 50 µM and the kcat is 37.8 ± 0.5 s⁻¹.

For the compound `COP(=S)(OC)Oc1ccc(SC)c(C)c1` [Fenthion, O,O-dimethyl O-[3-methyl-4-(methylthio)phenyl]phosphorothioate], in data set [1], the “RF (Dz/para R): ratio” value was 3 (3); the “RF (Mal R): ratio” value worked out at 5; the “LD50 LS2 … with 95% confidence limits” value is 61 (42–87), ng/fly; the “LD50 Llandillo 103 (Dz/para Resistant), with 95% confidence limits” value is listed as 210 (180–240) ng/fly. In addition, the “LD50 Woodside 5.2 (Mal Resistant), with 95% confidence limits” value in [1] is on record as 320 (210–490) ng/fly. In [4], the “Resistance factor … Dz/para resistance type” value was 3 (3) and the “Resistance factor … malathion resistance type” value was 7. In data set [13] (in vivo), the “resistance factor towards dimethyl OP vs its diethyl analogue” value is recorded as “about two- to five-fold greater resistance factors”.

As for `COP(=S)(OC)Oc1ccc([N+](=O)[O-])cc1` [Parathion-methyl, O,O-dimethyl O-4-nitrophenyl phosphorothioate], in data set [1], the “RF (Dz/para R): ratio” value was 12; the “RF (Mal R): ratio” value worked out at 27; the “LD50 LS2 … with 95% confidence limits” value is listed as 16 (11–20), ng/fly; the “LD50 Llandillo 103 (Dz/para Resistant), with 95% confidence limits” value was 185 (141–244), ng/fly. For the same compound, the “LD50 Woodside 5.2 (Mal Resistant), with 95% confidence limits” value in data set [1] is on record as 430 (390–490), ng/fly. Further, in data set [4], the “Resistance factor … Dz/para resistance type” value was 9 and the “Resistance factor … malathion resistance type” value is 10. The “resistance factor towards dimethyl OP vs its diethyl analogue” value in data set [13] (Woodside 5.2) is on record as “about two- to five-fold greater resistance factors”.
